Data from ChEMBL document CHEMBL1145313, “Identification of potent and highly selective chiral tri-amine and tetra-amine mu opioid receptors ligands: an example of lead optimization using mixture-based libraries” (Bioorg Med Chem Lett, 2006).

How the values were obtained:
[1] = target: Mu-type opioid receptor (Rattus norvegicus, UniProt P33535); test: Displacement of [3H]DAMGO from mu opioid receptor in rat brain homogenate; assay type: tissue-based
[2] = target: Kappa-type opioid receptor (Homo sapiens, UniProt P41145); test: Displacement of [3H]U-69593 from kappa opioid receptor
[3] = target: Delta-type opioid receptor (Homo sapiens, UniProt P41143); test: Displacement of [3H]DPDE from delta opioid receptor
Sequence of Delta-type opioid receptor (P41143 whole entry): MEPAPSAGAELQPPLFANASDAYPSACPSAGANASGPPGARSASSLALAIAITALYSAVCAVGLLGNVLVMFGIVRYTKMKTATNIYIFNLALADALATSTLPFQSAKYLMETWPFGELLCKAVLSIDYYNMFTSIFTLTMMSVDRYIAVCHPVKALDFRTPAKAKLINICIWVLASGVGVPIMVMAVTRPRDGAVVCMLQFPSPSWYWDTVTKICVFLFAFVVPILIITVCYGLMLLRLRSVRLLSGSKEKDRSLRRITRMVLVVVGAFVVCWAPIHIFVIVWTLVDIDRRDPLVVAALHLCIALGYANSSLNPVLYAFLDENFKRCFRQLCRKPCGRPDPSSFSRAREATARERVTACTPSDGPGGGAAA

Sequence of Kappa-type opioid receptor (P41145 whole entry): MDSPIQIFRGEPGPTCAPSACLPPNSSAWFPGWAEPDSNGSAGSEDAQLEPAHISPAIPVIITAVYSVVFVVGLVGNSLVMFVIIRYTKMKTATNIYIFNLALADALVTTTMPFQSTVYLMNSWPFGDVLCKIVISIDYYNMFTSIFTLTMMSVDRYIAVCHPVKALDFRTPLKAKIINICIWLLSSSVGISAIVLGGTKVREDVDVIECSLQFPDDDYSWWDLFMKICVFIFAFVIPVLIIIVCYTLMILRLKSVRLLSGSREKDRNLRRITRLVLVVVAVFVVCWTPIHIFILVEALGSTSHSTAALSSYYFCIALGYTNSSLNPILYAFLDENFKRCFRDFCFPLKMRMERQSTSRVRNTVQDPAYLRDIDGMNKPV
Sequence of Mu-type opioid receptor (P33535 whole entry): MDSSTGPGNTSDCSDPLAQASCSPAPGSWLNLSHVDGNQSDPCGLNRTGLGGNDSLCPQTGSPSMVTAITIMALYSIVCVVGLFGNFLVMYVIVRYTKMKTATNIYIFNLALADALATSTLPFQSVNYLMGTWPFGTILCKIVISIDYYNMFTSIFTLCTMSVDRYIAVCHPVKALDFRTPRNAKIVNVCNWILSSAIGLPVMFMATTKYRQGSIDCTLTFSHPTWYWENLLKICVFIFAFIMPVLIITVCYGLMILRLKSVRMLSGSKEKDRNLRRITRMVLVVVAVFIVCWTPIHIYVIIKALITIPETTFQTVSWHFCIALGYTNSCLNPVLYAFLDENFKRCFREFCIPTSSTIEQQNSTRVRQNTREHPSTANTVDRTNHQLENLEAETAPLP

`CCN[C@H](CN[C@H](CN[C@@H](Cc1ccc(O)cc1)CN1CCC[C@H]1CN[C@H](CN[C@H](CN)Cc1ccccc1)Cc1ccc(O)cc1)Cc1ccc(O)cc1)Cc1ccc(O)cc1` gave an IC50 [1] of 83 nM.
Molecule `CCN[C@H](CN[C@H](CN[C@@H](Cc1ccc(O)cc1)CN1CCC[C@H]1CN[C@H](CN[C@H](CN)CCSC)Cc1ccc(O)cc1)Cc1ccc(O)cc1)Cc1ccc(O)cc1` has an IC50 [1] of 113 nM.
Work on `CCN[C@H](CN[C@H](CN[C@H](CN[C@H](CN[C@@H](CN[C@@H](CN)CO)[C@@H](C)O)Cc1ccccc1)Cc1ccc(O)cc1)Cc1ccc(O)cc1)Cc1ccc(O)cc1` yielded an IC50 [1] of 163 nM.
Molecule `CCN[C@H](CN[C@H](CN[C@H](CN[C@H](CN[C@@H](CN[C@H](CN)Cc1ccccc1)[C@@H](C)O)Cc1ccccc1)Cc1ccccc1)Cc1ccc(O)cc1)Cc1ccc(O)cc1` has an IC50 [1] of 108 nM.
`CCN[C@H](CN[C@H](CN[C@@H](Cc1ccccc1)CN1CCC[C@H]1CN[C@@H](CN[C@H](CN)CCSC)[C@@H](C)O)Cc1ccc(O)cc1)Cc1ccc(O)cc1` showed an IC50 [1] of 14 nM.
`CCN[C@H](CN[C@H](CN[C@H](CN[C@H](CN[C@@H](CN[C@@H](CN)CO)[C@@H](C)O)Cc1ccccc1)Cc1ccccc1)Cc1ccc(O)cc1)Cc1ccc(O)cc1` was tested, and the IC50 [1] was 90 nM.
Molecule `CCN[C@H](CN[C@H](CN[C@H](CN[C@H](CN[C@@H](CN[C@H](CN)CCSC)[C@@H](C)O)Cc1ccccc1)Cc1ccccc1)Cc1ccc(O)cc1)Cc1ccc(O)cc1` has an IC50 [1] of 115 nM.
With `NC[C@H](Cc1ccc(O)cc1)NC[C@@H](N)Cc1ccc(O)cc1` the IC50 [2] was 32.2 µM and the IC50 [1] was 6040 nM.
`CCN[C@H](CN[C@H](CN[C@@H](Cc1ccccc1)CN1CCC[C@H]1CN[C@@H](CN[C@H](CN)Cc1ccccc1)[C@@H](C)O)Cc1ccc(O)cc1)Cc1ccc(O)cc1` showed an IC50 [1] of 19 nM.
`CCN[C@H](CN[C@H](CN[C@H](CN[C@H](CN[C@@H](CN[C@H](CN)CCSC)[C@@H](C)O)Cc1ccccc1)Cc1ccc(O)cc1)Cc1ccc(O)cc1)Cc1ccc(O)cc1` showed an IC50 [1] of 181 nM.
`CCN[C@H](CN[C@H](CN[C@@H](Cc1ccccc1)CN1CCC[C@H]1CN[C@@H](CN[C@H](CN)Cc1ccc(O)cc1)[C@@H](C)O)Cc1ccc(O)cc1)Cc1ccc(O)cc1` was tested, and the IC50 [1] was 20 nM.
In the case of `CCN[C@H](CN[C@H](CN[C@@H](Cc1ccccc1)CN1CCC[C@H]1CN[C@H](CN[C@H](CN)CO)Cc1ccc(O)cc1)Cc1ccc(O)cc1)Cc1ccc(O)cc1` (stereo in doubt), the IC50 [1] is reported as 67 nM.
`CCN[C@H](CN[C@H](CN[C@@H](Cc1ccc(O)cc1)CN1CCC[C@H]1CN)Cc1ccc(O)cc1)Cc1ccc(O)cc1` gave an IC50 [1] of 13 nM.
Molecule `CN(C)[C@H](CN[C@H](CN)Cc1ccc(O)cc1)Cc1ccc(O)cc1` has an IC50 [3] of 17.9 µM, an IC50 [2] of 22.6 µM and an IC50 [1] of 262 nM.
For `CCN[C@H](CN[C@H](CN[C@H](CN[C@H](CN[C@H](CN[C@@H](CN)CO)Cc1ccc(O)cc1)Cc1ccccc1)Cc1ccc(O)cc1)Cc1ccc(O)cc1)Cc1ccc(O)cc1`, the IC50 [1] was 345 nM.
Work on `CCN[C@H](CN[C@H](CN[C@H](CN[C@H](CN[C@H](CN[C@H](CN)CCSC)Cc1ccc(O)cc1)Cc1ccccc1)Cc1ccc(O)cc1)Cc1ccc(O)cc1)Cc1ccc(O)cc1` yielded an IC50 [1] of 260 nM.
For `CNC[C@H](Cc1ccc(O)cc1)N(Cc1ccccc1)C[C@H](Cc1ccc(O)cc1)N(C)C`, the IC50 [3] was 56.7 µM, the IC50 [2] was 10.6 µM and the IC50 [1] was 1280 nM.
`CCN[C@H](CN[C@H](CN[C@@H](Cc1ccc(O)cc1)CN1CCC[C@H]1CN[C@@H](CN[C@H](CN)Cc1ccccc1)[C@@H](C)O)Cc1ccc(O)cc1)Cc1ccc(O)cc1` was tested, and the IC50 [1] was 128 nM.
Work on `CN[C@H](CN[C@H](CN)Cc1ccc(O)cc1)Cc1ccc(O)cc1` yielded an IC50 [3] of 10.9 µM, an IC50 [2] of 9.67 µM and an IC50 [1] of 111 nM.
For `CCN[C@H](CN[C@H](CN[C@@H](Cc1ccccc1)CN1CCC[C@H]1CN[C@H](CN)Cc1ccc(O)cc1)Cc1ccc(O)cc1)Cc1ccc(O)cc1`, the IC50 [1] was 24 nM.
For `CN(C[C@@H](N)Cc1ccc(O)cc1)[C@H](CNCc1ccccc1)Cc1ccc(O)cc1`, the IC50 [3] was 10.2 µM, the IC50 [2] was 4.14 µM and the IC50 [1] was 10 nM.
In the case of `CCN[C@H](CN[C@H](CN[C@@H](Cc1ccccc1)CN1CCC[C@H]1CN[C@H](CN[C@H](CN)CO)Cc1ccc(O)cc1)Cc1ccc(O)cc1)Cc1ccc(O)cc1` (stereo in doubt; 5), the IC50 [1] is reported as 19 nM.
Work on `CCN[C@H](CN[C@H](CN[C@@H](Cc1ccccc1)CN1CCC[C@H]1CN[C@@H](CN1CCC[C@H]1CN)[C@@H](C)O)Cc1ccc(O)cc1)Cc1ccc(O)cc1` yielded an IC50 [1] of 15 nM.
`CCN[C@H](CN[C@H](CN[C@H](CN[C@H](CN[C@@H](CN1CCC[C@H]1CN)[C@@H](C)O)Cc1ccccc1)Cc1ccc(O)cc1)Cc1ccc(O)cc1)Cc1ccc(O)cc1` showed an IC50 [1] of 155 nM.
For `CCN[C@H](CN[C@H](CN[C@@H](Cc1ccccc1)CN1CCC[C@H]1CN[C@H](CN[C@H](CN)Cc1ccc(O)cc1)Cc1ccc(O)cc1)Cc1ccc(O)cc1)Cc1ccc(O)cc1`, the IC50 [1] was 27 nM.
In the case of `CCN[C@H](CN[C@H](CN[C@H](CN[C@H](CN)Cc1ccc(O)cc1)Cc1ccc(O)cc1)Cc1ccc(O)cc1)Cc1ccc(O)cc1`, the IC50 [1] is reported as 96 nM.
`CCN[C@H](CN[C@H](CN[C@@H](Cc1ccccc1)CN1CCC[C@H]1CN[C@H](CN[C@H](CN)CCSC)Cc1ccc(O)cc1)Cc1ccc(O)cc1)Cc1ccc(O)cc1` showed an IC50 [1] of 34 nM.
Work on `CCN[C@H](CN[C@H](CN[C@@H](Cc1ccc(O)cc1)CN1CCC[C@H]1CN[C@@H](CN[C@H](CN)CCSC)[C@@H](C)O)Cc1ccc(O)cc1)Cc1ccc(O)cc1` yielded an IC50 [1] of 112 nM.
Work on `CNC[C@H](Cc1ccc(O)cc1)N(Cc1ccccc1)C[C@@H](N)Cc1ccc(O)cc1` yielded an IC50 [3] of 35.6 µM, an IC50 [2] of 14.4 µM and an IC50 [1] of 882 nM.
`CCN[C@H](CN[C@H](CN[C@H](CN[C@H](CN[C@H](CN[C@H](CN)Cc1ccc(O)cc1)Cc1ccc(O)cc1)Cc1ccccc1)Cc1ccc(O)cc1)Cc1ccc(O)cc1)Cc1ccc(O)cc1` showed an IC50 [1] of 261 nM.
For `CCN[C@H](CN[C@H](CN[C@H](CN)Cc1ccccc1)Cc1ccc(O)cc1)Cc1ccc(O)cc1`, the IC50 [1] was 47 nM.
`CN[C@@H](Cc1ccc(O)cc1)CN(C)[C@H](CNCc1ccccc1)Cc1ccc(O)cc1` gave an IC50 [3] of 3.97 µM and an IC50 [2] of 3.85 µM.
Molecule `CCN[C@H](CN[C@H](CN[C@H](CN[C@H](CN[C@@H](CN[C@H](CN)Cc1ccc(O)cc1)[C@@H](C)O)Cc1ccccc1)Cc1ccccc1)Cc1ccc(O)cc1)Cc1ccc(O)cc1` has an IC50 [1] of 78 nM.
In the case of `CNC[C@H](Cc1ccc(O)cc1)N(Cc1ccccc1)C[C@H](Cc1ccc(O)cc1)NC`, the IC50 [3] is reported as 10.2 µM, the IC50 [2] is reported as 11.1 µM and the IC50 [1] is reported as 1210 nM.
`CCN[C@H](CN[C@H](CN[C@H](CN[C@H](CN[C@H](CN[C@@H](CN)CO)Cc1ccc(O)cc1)Cc1ccccc1)Cc1ccccc1)Cc1ccc(O)cc1)Cc1ccc(O)cc1` showed an IC50 [1] of 66 nM.
In the case of `CCN[C@H](CN[C@H](CN[C@@H](Cc1ccccc1)CN1CCC[C@H]1CN[C@H](CN[C@H](CN)Cc1ccccc1)Cc1ccc(O)cc1)Cc1ccc(O)cc1)Cc1ccc(O)cc1`, the IC50 [1] is reported as 27 nM.
`CCN[C@H](CN[C@H](CN[C@H](CN)Cc1ccc(O)cc1)Cc1ccc(O)cc1)Cc1ccc(O)cc1` gave an IC50 [1] of 138 nM.
`CCN[C@H](CN[C@H](CN)Cc1ccc(O)cc1)Cc1ccc(O)cc1` showed an IC50 [1] of 344 nM.
`CCN[C@H](CN[C@H](CN[C@H](CN[C@H](CN[C@H](CN[C@H](CN)Cc1ccccc1)Cc1ccc(O)cc1)Cc1ccccc1)Cc1ccc(O)cc1)Cc1ccc(O)cc1)Cc1ccc(O)cc1` showed an IC50 [1] of 258 nM.
Molecule `CCN[C@H](CN[C@H](CN[C@@H](Cc1ccc(O)cc1)CN1CCC[C@H]1CN[C@@H](CN1CCC[C@H]1CN)[C@@H](C)O)Cc1ccc(O)cc1)Cc1ccc(O)cc1` has an IC50 [1] of 41 nM.
Molecule `CCN[C@H](CN[C@H](CN[C@@H](Cc1ccccc1)CN1CCC[C@H]1CN[C@@H](Cc1ccc(O)cc1)CN1CCC[C@H]1CN)Cc1ccc(O)cc1)Cc1ccc(O)cc1` has an IC50 [1] of 18 nM.
`CCN[C@H](CN[C@H](CN[C@@H](Cc1ccc(O)cc1)CN1CCC[C@H]1CN[C@@H](CN[C@H](CN)Cc1ccc(O)cc1)[C@@H](C)O)Cc1ccc(O)cc1)Cc1ccc(O)cc1` was tested, and the IC50 [1] was 61 nM.
`CCN[C@H](CN[C@H](CN[C@@H](Cc1ccc(O)cc1)CN1CCC[C@H]1CN[C@H](CN[C@H](CN)CO)Cc1ccc(O)cc1)Cc1ccc(O)cc1)Cc1ccc(O)cc1` gave an IC50 [1] of 89 nM.
`CCN[C@H](CN[C@H](CN[C@H](CN[C@H](CN[C@H](CN[C@H](CN)Cc1ccccc1)Cc1ccc(O)cc1)Cc1ccccc1)Cc1ccccc1)Cc1ccc(O)cc1)Cc1ccc(O)cc1` showed an IC50 [1] of 176 nM.
For `CCN[C@H](CN[C@H](CN[C@H](CN[C@H](CN[C@@H](Cc1ccc(O)cc1)CN1CCC[C@H]1CN)Cc1ccccc1)Cc1ccc(O)cc1)Cc1ccc(O)cc1)Cc1ccc(O)cc1`, the IC50 [1] was 148 nM.
`CCN[C@H](CN[C@H](CN[C@H](CN[C@H](CN[C@H](CN)Cc1ccc(O)cc1)Cc1ccc(O)cc1)Cc1ccc(O)cc1)Cc1ccc(O)cc1)Cc1ccc(O)cc1` was tested, and the IC50 [1] was 146 nM.
For `CCN[C@H](CN[C@H](CN[C@@H](Cc1ccc(O)cc1)CN1CCC[C@H]1CN[C@@H](CN[C@@H](CN)CO)[C@@H](C)O)Cc1ccc(O)cc1)Cc1ccc(O)cc1`, the IC50 [1] was 32 nM.
Molecule `CCN[C@H](CN[C@H](CN[C@H](CN[C@H](CN[C@@H](CN[C@H](CN)Cc1ccc(O)cc1)[C@@H](C)O)Cc1ccccc1)Cc1ccc(O)cc1)Cc1ccc(O)cc1)Cc1ccc(O)cc1` has an IC50 [1] of 200 nM.
Molecule `CCN[C@H](CN[C@H](CN[C@@H](Cc1ccc(O)cc1)CN1CCC[C@H]1CN[C@@H](Cc1ccc(O)cc1)CN1CCC[C@H]1CN)Cc1ccc(O)cc1)Cc1ccc(O)cc1` has an IC50 [1] of 79 nM.
For `CCN[C@H](CN[C@H](CN[C@@H](Cc1ccccc1)CN1CCC[C@H]1CN[C@@H](CN[C@@H](CN)CO)[C@@H](C)O)Cc1ccc(O)cc1)Cc1ccc(O)cc1`, the IC50 [1] was 19 nM.
In the case of `CCN[C@H](CN[C@H](CN[C@H](CN[C@H](CN[C@@H](Cc1ccc(O)cc1)CN1CCC[C@H]1CN)Cc1ccccc1)Cc1ccccc1)Cc1ccc(O)cc1)Cc1ccc(O)cc1`, the IC50 [1] is reported as 48 nM.
Molecule `CCN[C@H](CN[C@H](CN[C@H](CN[C@H](CN[C@@H](CN1CCC[C@H]1CN)[C@@H](C)O)Cc1ccccc1)Cc1ccccc1)Cc1ccc(O)cc1)Cc1ccc(O)cc1` has an IC50 [1] of 82 nM.
Molecule `CCN[C@H](CN[C@H](CN[C@H](CN[C@H](CN[C@H](CN[C@H](CN)Cc1ccc(O)cc1)Cc1ccc(O)cc1)Cc1ccccc1)Cc1ccccc1)Cc1ccc(O)cc1)Cc1ccc(O)cc1` has an IC50 [1] of 95 nM.
For `CCN[C@H](CN[C@H](CN[C@@H](Cc1ccc(O)cc1)CN1CCC[C@H]1CN[C@H](CN[C@H](CN)Cc1ccc(O)cc1)Cc1ccc(O)cc1)Cc1ccc(O)cc1)Cc1ccc(O)cc1`, the IC50 [1] was 87 nM.
Work on `CCN[C@H](CN[C@H](CN[C@H](CN[C@H](CN[C@H](CN[C@H](CN)CCSC)Cc1ccc(O)cc1)Cc1ccccc1)Cc1ccccc1)Cc1ccc(O)cc1)Cc1ccc(O)cc1` yielded an IC50 [1] of 126 nM.
